What all share (assay): selectivity profiling in a panel of 340 wild-type kinases (Reaction Biology Europe)
Holding throughout (assay type): binding

The target of test [1] is T1, 340 wild-type kinases (Homo sapiens, UniProt Q9UPE1).
T1 construct: purchased Reaction Biology Europe
As to conditions: STK23; 1 µM; read-out: residual activity. The source says:
(§1) Potential interactions between 2015 and 340 wild-type kinases were checked by means of a competition binding assay performed by Reaction Biology Europe (Supplementary Table 15).

For test [2], the target named is T2, 340 wild-type kinases (Homo sapiens, UniProt P27361).
T2 construct: purchased Reaction Biology Europe
As to conditions: 0.2 µM 2015; read-out: ERK1 residual activity.
Excerpt: as §1

The target in test [3] is T3, 340 wild-type kinases (Homo sapiens, UniProt Q00537).
T3 construct: purchased Reaction Biology Europe
As to conditions: CDK17/p35NCK; 0.2 µM; read-out: residual activity.
Excerpt: as §1

In test [4] the target is T4, 340 wild-type kinases (Homo sapiens, UniProt O75582).
T4 construct: purchased Reaction Biology Europe
As to conditions: 1 µM 2015; read-out: RPS6KA5 residual activity.
Excerpt: as §1

In test [5] the target is T5, 340 wild-type kinases (Homo sapiens, UniProt P48729).
T5 construct: purchased Reaction Biology Europe
As to conditions: 1 µM 2015; read-out: CK1alpha1 residual activity.
Excerpt: as §1

The target in test [6] is T6, 340 wild-type kinases (Homo sapiens, UniProt P11802).
T6 construct: purchased Reaction Biology Europe
The note with it: CDK4/CycD1; 1 µM; read-out: residual activity.
Excerpt: as §1

Test [7] addresses T7, 340 wild-type kinases (Homo sapiens, UniProt Q8TDX7).
T7 construct: purchased Reaction Biology Europe
The note with it: NEK7; 1 µM; read-out: residual activity.
Excerpt: as §1

Test [8] addresses T8, 340 wild-type kinases (Homo sapiens, UniProt P25098).
T8 construct: purchased Reaction Biology Europe
T8 sequence (P25098 1-689): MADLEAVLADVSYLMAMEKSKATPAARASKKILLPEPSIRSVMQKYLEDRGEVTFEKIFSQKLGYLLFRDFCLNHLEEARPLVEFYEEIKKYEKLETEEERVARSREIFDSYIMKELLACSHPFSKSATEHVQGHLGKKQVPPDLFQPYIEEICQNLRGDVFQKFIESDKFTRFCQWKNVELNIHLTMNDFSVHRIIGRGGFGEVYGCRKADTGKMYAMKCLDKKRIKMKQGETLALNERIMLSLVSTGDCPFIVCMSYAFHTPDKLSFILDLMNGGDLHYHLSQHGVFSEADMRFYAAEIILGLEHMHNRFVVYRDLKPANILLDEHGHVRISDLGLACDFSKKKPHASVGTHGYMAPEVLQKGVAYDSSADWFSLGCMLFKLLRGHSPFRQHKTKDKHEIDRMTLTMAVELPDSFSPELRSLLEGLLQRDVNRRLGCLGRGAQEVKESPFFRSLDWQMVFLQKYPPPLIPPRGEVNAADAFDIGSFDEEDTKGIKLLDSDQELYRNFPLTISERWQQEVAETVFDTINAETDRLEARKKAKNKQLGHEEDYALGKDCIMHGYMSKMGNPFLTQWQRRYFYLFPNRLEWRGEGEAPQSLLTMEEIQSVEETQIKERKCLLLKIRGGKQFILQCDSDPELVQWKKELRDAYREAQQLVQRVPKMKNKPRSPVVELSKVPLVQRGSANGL
As to conditions: 1 µM 2015; read-out: GRK2 residual activity.
Excerpt: as §1

Test [9] addresses T9, 340 wild-type kinases (Homo sapiens, UniProt Q8NG66).
T9 construct: purchased Reaction Biology Europe
T9 sequence (Q8NG66 1-645): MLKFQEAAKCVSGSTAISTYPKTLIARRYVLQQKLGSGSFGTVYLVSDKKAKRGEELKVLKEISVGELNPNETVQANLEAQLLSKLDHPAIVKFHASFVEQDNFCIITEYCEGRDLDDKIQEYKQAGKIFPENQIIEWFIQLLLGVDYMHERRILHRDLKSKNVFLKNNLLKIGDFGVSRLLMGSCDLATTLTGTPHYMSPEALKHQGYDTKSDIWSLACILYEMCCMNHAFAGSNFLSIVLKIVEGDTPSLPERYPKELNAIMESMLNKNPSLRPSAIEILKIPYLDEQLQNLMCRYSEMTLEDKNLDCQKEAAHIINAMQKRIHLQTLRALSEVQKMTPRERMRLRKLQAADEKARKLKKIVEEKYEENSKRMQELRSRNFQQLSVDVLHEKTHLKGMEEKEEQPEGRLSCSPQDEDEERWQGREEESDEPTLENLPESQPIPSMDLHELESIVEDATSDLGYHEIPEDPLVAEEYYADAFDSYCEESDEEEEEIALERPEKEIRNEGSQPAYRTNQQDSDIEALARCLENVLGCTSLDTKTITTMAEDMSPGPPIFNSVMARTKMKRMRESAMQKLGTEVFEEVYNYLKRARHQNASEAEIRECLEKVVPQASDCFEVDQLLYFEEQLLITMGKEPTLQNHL
The note with it: 0.2 µM 2015; read-out: NEK11 residual activity.
Excerpt: as §1

The target of test [10] is T10, 340 wild-type kinases (Homo sapiens, UniProt Q9UQM7).
T10 construct: purchased Reaction Biology Europe
The note with it: CAMK2A; 0.2 µM; read-out: residual activity.
Excerpt: as §1

In test [11] the target is T11, 340 wild-type kinases (Homo sapiens, UniProt Q9HAZ1).
T11 construct: purchased Reaction Biology Europe
The note with it: 1 µM 2015; read-out: CLK4 residual activity.
Excerpt: as §1

Test [12] addresses T12, 340 wild-type kinases (Homo sapiens, UniProt O43318).
T12 construct: purchased Reaction Biology Europe
T12 sequence (O43318 1-606): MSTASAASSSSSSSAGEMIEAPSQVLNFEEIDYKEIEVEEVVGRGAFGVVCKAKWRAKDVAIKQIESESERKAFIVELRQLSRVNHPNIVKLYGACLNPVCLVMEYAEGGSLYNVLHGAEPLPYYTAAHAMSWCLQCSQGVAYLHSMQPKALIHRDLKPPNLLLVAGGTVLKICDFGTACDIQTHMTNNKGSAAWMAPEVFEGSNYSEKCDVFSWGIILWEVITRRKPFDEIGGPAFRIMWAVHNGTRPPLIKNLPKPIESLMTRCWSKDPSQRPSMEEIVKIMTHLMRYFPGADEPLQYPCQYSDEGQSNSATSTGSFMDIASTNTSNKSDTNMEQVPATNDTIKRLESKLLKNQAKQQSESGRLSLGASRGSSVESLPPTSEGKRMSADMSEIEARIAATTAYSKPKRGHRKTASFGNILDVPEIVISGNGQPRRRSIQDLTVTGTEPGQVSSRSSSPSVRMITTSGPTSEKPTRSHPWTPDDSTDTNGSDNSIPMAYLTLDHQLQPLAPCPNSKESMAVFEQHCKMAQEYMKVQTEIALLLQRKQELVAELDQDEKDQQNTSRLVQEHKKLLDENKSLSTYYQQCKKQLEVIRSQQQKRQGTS
The note with it: MAP3K7/MAP3K7IP1; 0.2 µM; read-out: residual activity.
Excerpt: as §1

SMILES strings stand for the structures.

T5 sequence (P48729 whole entry): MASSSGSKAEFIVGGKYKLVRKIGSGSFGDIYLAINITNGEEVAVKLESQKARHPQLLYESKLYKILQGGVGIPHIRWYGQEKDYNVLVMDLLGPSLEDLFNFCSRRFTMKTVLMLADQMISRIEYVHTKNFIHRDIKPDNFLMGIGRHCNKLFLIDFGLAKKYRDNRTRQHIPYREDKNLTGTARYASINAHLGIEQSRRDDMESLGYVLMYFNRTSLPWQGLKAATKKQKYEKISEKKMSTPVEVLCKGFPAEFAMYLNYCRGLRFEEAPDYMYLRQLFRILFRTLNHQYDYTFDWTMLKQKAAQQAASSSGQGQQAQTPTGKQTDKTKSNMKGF
T11 sequence (Q9HAZ1 whole entry): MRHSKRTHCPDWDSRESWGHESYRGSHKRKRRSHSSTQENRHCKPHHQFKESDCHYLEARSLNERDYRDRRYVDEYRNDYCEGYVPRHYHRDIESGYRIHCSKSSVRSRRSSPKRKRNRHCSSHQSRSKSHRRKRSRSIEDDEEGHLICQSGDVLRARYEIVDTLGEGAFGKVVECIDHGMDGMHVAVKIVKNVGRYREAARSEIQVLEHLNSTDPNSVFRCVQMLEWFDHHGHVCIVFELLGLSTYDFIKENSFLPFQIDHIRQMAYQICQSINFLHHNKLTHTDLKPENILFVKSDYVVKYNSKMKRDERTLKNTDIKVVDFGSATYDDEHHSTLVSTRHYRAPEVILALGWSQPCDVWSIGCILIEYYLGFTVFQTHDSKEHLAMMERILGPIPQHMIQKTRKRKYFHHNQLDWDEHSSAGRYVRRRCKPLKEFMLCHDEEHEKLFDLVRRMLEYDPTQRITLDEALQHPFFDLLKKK
T10 sequence (Q9UQM7 whole entry): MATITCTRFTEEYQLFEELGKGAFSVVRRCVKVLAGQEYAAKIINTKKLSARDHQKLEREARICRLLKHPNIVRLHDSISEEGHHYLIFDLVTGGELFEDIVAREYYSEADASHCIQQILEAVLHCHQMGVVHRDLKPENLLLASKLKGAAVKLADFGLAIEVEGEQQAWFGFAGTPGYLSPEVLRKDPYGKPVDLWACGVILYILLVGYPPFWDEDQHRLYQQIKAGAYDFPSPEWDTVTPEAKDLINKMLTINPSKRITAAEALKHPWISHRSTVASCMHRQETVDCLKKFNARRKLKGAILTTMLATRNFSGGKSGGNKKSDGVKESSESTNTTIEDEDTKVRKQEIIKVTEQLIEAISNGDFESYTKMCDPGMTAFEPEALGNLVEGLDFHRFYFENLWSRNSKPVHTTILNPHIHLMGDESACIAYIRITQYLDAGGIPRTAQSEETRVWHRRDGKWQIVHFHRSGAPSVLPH
T4 sequence (O75582 whole entry): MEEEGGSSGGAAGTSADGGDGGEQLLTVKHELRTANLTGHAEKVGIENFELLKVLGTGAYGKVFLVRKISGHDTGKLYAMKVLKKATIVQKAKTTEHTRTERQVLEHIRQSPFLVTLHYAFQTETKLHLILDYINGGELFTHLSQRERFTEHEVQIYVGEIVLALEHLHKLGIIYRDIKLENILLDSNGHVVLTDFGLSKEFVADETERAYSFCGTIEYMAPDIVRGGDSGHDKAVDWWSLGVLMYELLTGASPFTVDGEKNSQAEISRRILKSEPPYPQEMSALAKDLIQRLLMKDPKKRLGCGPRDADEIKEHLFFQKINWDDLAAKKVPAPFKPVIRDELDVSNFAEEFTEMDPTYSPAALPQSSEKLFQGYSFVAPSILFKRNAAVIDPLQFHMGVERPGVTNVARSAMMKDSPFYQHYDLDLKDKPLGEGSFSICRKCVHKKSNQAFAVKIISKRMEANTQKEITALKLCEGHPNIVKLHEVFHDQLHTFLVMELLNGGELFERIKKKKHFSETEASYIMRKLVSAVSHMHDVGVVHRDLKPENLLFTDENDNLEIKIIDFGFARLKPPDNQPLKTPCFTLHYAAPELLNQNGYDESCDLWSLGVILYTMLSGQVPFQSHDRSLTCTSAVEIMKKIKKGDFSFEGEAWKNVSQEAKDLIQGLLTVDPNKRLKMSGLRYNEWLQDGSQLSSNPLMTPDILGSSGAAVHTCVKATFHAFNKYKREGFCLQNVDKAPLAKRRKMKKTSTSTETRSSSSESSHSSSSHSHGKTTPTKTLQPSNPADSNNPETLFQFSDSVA
T3 sequence (Q00537 whole entry): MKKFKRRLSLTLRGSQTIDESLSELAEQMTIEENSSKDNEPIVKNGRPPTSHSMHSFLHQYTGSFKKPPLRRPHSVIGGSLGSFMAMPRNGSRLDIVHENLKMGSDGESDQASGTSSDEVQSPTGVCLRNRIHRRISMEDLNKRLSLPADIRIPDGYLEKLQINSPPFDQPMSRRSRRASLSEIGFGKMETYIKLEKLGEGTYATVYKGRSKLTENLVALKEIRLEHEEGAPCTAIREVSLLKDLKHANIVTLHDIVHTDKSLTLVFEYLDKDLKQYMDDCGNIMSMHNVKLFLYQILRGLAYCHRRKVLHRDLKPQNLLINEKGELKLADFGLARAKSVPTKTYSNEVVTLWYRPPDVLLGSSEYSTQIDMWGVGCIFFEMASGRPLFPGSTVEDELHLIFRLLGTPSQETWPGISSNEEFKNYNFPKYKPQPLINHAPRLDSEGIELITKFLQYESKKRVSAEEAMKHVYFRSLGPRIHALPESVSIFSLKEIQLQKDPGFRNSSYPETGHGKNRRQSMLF
T6 sequence (P11802 whole entry): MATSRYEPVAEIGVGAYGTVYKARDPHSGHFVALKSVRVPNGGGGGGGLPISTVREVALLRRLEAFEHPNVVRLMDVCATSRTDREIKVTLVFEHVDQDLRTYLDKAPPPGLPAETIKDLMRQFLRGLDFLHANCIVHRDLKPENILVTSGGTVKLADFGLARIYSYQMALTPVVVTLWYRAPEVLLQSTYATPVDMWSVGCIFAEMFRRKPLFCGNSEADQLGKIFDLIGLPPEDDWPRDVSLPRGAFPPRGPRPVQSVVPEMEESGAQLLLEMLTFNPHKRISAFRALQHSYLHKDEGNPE
T2 sequence (P27361 whole entry): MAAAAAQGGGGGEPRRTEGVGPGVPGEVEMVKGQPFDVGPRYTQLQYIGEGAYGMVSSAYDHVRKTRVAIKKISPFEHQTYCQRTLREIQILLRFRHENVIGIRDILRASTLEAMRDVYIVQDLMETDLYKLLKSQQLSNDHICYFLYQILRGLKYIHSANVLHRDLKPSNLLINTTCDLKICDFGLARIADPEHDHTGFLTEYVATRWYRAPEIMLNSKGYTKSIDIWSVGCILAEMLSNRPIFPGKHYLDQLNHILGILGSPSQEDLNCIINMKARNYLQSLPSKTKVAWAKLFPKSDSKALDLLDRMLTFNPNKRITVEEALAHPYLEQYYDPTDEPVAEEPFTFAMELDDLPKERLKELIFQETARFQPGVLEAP
T1 sequence (Q9UPE1 whole entry): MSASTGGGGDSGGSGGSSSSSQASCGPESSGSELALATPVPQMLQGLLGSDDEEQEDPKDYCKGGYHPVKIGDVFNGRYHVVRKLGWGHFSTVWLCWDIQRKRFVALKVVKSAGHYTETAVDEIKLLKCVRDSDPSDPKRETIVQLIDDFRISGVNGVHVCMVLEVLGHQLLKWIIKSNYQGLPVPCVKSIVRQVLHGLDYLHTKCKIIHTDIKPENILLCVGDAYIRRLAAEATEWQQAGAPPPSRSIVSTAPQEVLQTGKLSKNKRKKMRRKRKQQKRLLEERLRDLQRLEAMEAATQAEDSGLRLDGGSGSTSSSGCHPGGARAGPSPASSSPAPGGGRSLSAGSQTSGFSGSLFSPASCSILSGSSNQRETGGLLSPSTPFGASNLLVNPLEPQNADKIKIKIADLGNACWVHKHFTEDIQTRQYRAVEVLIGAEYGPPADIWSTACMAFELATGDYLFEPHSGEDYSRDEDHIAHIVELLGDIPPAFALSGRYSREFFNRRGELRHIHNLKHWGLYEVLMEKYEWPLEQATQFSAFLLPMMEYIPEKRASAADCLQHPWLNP
T7 sequence (Q8TDX7 whole entry): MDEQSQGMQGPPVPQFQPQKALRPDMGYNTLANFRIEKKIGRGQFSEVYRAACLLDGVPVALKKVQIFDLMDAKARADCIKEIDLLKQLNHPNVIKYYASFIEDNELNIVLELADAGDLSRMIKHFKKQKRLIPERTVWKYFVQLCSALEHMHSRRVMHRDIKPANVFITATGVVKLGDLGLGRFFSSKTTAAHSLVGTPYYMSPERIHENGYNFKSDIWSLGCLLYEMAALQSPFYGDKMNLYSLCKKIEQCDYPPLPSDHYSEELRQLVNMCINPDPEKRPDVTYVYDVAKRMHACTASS

Consider `CNC(=O)c1ccc2c(c1)C(=O)c1ccc(Nc3ccc(F)c(NC(=O)C4CC4)c3)cc1CC2` [Compound 2015], for which the remaining activity at 1 µM was 94.1% on 340 wild-type kinases [1]; 90.2% on 340 wild-type kinases [4]; 94.9% on 340 wild-type kinases [5]; 98.4% on 340 wild-type kinases [6]; 110% at 340 wild-type kinases [7]; 80.8% on 340 wild-type kinases [8]. The remaining activity at 1 µM on 340 wild-type kinases [11] was 118%. In addition, the remaining activity at 0.2 µM on 340 wild-type kinases [2] was 108%; at 340 wild-type kinases [3], 94.8%; on 340 wild-type kinases [9] it was 91.3%; on 340 wild-type kinases [10] it was 102%; at 340 wild-type kinases [12] it was 96.8%.

For the origin of these results see article PMC11864979, “First-in-class ultralong-target-residence-time p38α inhibitors as a mitosis-targeted therapy for colorectal cancer” (Nature Cancer, 2025).
